Laboratory results as given in ChEMBL document CHEMBL3044546, “Synthesis of inhibitors of imidazole glycerol phosphate dehydratase” (Bioorg Med Chem Lett, 1996).
pIC50, pKi: −log10 of the molar value.

Tested on: not listed separately
Experiment: Inhibition of Saccharomyces cerevisiae imidazole glycerol-phosphate dehydratase expressed in Escherichia coli

Q: With `O=C(O)C(CCC(O)c1nc[nH]n1)C(=O)O` (centres undefined) as the compound, how does the pIC50 read?
A: 5.22

Q: With `O=C(O)C(CC(O)c1nc[nH]n1)C(=O)O` (centres undefined) as the compound, how does the pIC50 read?
A: < 3.30

Q: With `O=P(O)(O)CC(O)Cn1cncn1` (centres undefined) as the compound, how does the pKi read?
A: 9.22

Q: With `O=C(O)C(OCC(O)Cn1cncn1)C(=O)O` (centres undefined) as the compound, how does the pIC50 read?
A: 4.00

Q: With `O=P(O)(O)CCCCC(O)c1nc[nH]n1` (centres undefined) as the compound, how does the pIC50 read?
A: 4.10

Q: With `O=C(O)C(OCCC(O)Cn1cncn1)C(=O)O` (centres undefined) as the compound, how does the pIC50 read?
A: 4.52

Q: With `O=P(O)(O)COCCNc1nc[nH]n1` as the compound, how does the pIC50 read?
A: 5.30

Q: With `O=P(O)(O)CCC(O)c1nc[nH]n1` (centres undefined) as the compound, how does the pIC50 read?
A: 6.89

Q: What about the pKi of the same compound?
A: 7.40

Q: With `O=P(O)(O)CSCC(O)Cn1cncn1` (centres undefined) as the compound, how does the pIC50 read?
A: 5.15

Q: With `O=C(O)C(CCCC(O)c1nc[nH]n1)C(=O)O` (centres undefined) as the compound, how does the pIC50 read?
A: < 3.30

Q: With `O=P(O)(O)COCC(O)Cn1cncn1` (centres undefined) as the compound, how does the pIC50 read?
A: > 6.00

Q: With `CNC(CC(O)CCP(=O)(O)O)c1nc[nH]n1` (centres undefined) as the compound, how does the pIC50 read?
A: 5.00

Tested on: Saccharomyces cerevisiae
Experiment: Inhibition of Saccharomyces cerevisiae imidazole glycerol-phosphate dehydratase expressed in Escherichia coli at 1 uM

Q: Which inhibition does the source give for `O=P(O)(O)COCC(O)Cn1cncn1` (centres undefined) here?
A: 80%
